Target: T1, Drosophila melanogaster dopamine transporter (dDAT) (Drosophila melanogaster, UniProt Q7K4Y6)
T1 construct: gene DAT; Full-length wild-type dDAT with a C-terminal thrombin site and 8 histidine-tag
Test: [3H]nisoxetine saturation binding, scintillation proximity assay on purified dDAT

T1 sequence (Q7K4Y6 whole entry): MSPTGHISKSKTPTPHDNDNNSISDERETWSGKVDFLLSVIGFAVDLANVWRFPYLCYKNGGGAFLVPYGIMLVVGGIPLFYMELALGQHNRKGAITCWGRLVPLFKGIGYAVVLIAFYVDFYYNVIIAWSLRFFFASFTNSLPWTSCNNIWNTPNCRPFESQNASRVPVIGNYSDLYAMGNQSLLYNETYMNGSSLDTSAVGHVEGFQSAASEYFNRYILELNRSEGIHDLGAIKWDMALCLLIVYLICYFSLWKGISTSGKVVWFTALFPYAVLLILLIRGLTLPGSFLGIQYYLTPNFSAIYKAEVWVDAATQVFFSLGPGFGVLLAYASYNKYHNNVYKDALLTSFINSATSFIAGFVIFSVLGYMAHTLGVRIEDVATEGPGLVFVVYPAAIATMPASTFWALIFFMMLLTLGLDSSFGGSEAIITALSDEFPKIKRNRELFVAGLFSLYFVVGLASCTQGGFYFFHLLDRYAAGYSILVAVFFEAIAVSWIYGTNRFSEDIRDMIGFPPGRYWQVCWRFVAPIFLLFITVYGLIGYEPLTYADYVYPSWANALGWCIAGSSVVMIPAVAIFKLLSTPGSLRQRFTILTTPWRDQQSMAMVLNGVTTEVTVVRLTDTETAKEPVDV

CNCCC(Oc1ccccc1OC)c1ccccc1 (stereo not shown) [nisoxetine]
Kd: 80 ± 6 nM

From PMC6586795 (Nature Communications, 2019)
